Reference: patent US20070161609A1, “Use of mitochondrially targeted antioxidant in treatment and prevention of drug-induced liver disease” (priority 2006, published 2007)
“Also recorded” adds a separate entry of the source. Like-named read-outs stand apart in the source and are kept apart here.

What was measured:
[1] = tested on: immortalized hepatocytes (Fa2N-4 or Ea1C-35); assay: Reactive oxygen species in immortalized hepatocytes; format: cell-based; conditions: for ROS formation: hepatocytes intoxicated with e.g. paracetamol (10 mM for 2 hours), DDC or BSO, simultaneous treatment at EC50 concentrations
Experimental: Tested hepatocytes are grown in 96-well plates in culture medium (DMEM supplemented with 10% FCS, Gibco) to 80% confluency in the presence of paracetamol, subsequently washed with HBSS and incubated in the dark with DHE (10-50 μM) for 10 minutes at 37° C. Cells are then washed twice with Hank's balanced salt solution (HBSS, Gibco) to remove excess dye. Fluorescence is monitored in a fluorescence microscope (Olympus, Hamburg, Germany).
To determineDCF fluorescence in a microplate reader (Tecan, Crailsheim, Germany), immortalized hepatocytes are grown in 96-well plates to 80% confluency in presence of paracetamol. The cells are then washed twice with Hank's balanced salt solution (HBSS, Gibco) and incubated in the dark with CM-H2DCFDA (8.5 μM) dissolved in HBSS containing N-co-nitro-L-arginine methyl ester (L-NAME, 10 μM) for 10 minutes at 37° C. to prevent the formation of NO. After several washes with HBSS to remove excess dye, fluorescence is monitored by using 480 nm excitation and 540 nm emission wavelength. DCF fluorescence is standardized to the number of viable cells using the Alamar Blue test according to the manufacturer's instructions (Biosource, Nivelles, Belgium). […] The absorbance is then measured at the wavelength of 580 nm.
Optionally, ROS production can be assessed by flow cytometric analysis of CM-H2DCFDA stained cells. The cells intoxicated with paracetamol are detached and harvested by trypsinisation, collected by centrifugation and resuspended in HBSS at a concentration of 1×10^6 cells/ml. Cells are then loaded with 8.5 μM CM-H2DCFDA for 15 minutes in the dark at 37° C. before stimulation. The DCF fluorescence is monitored by analyzing 10,000 cells using 480 nm excitation and 540 nm emission wavelengths in a flow cytometer (Partec, Muenster, Germany).
The hepatocytes are then washed once with HBSS (Hanks' Balanced Salt Solution, Gibco) and incubated with MitoQ in concentration range of 0.5 to 10 μM or the respective amount of DMSO (Sigma). After 15 min DCF is added to the cells (final concentration of 8 μM) and cells are incubated with the dye for 10 min. After loading the media is removed and fresh HBSS is added containing MitoQ and CoCl2 (100 μM).
After 3 subsequent washing the cells are equilibrated in plates containing 1 ml of 50 mmol/L HEPES (pH 7.4), 135 mmol/L NaCl, 1 mmol/L CaCl2, 1 mmol/L MgCl2, 5 mmol/L KCl, 5.5 mmol/L glucose, and 5 μmol/L lucigenin as the electron acceptor. The light reaction between superoxide and lucigenin is detected using a chemiluminescence reader (Lumistar, BMG laboratories, Germany). The chemiluminescence signal is expressed as average counts per minute and normalized to cell number as determined by cell counter (Casy Technology Instrument, Schärfe-System, Germany).

[2] = tested on: mitochondria within isolated cells; conditions: in vitro; cited from earlier work
[3] = cited from earlier work; for gross signs of toxicity: fed in drinking water two or three days, 500 μM or 1 mM MitoQ or MitoS, 500 μM MitoVit E; for safety of long term feeding to mice: long term basis, potentially therapeutically effective concentrations within brain, heart, liver, muscle
[4] = tested on: carprofen- and DDC-intoxicated mice livers; assay: Hepatocyte damage in mouse liver upon 3 days exposure to carprofen in combination with DDC (histology); format: in vivo; conditions: carprofen 5 mg/kg + DDC 0.1% in diet, MitoQ 300 nmol/animal in PBS/1% DMSO
Source text: Controls receive 300 μPBS only.

[5] = tested on: mice intoxicated with valproic acid; assay: Long term (three weeks) valproic acid intoxication, liver histology; format: in vivo, mouse; conditions: valproic acid 0.71% weight/volume for three weeks; 1.25 mg/kg daily i.p. or i.v.; compared to controls
Experimental: Chronic liver damage can be assessed in mice intoxicated with valproate (0.71% weight/volume) for up to 21 days when fatty degeneration of hepatocytes, activation of Kupffer cells, inflammation and hepatocyte necrosis can be detected (Raza M. 2000, Int J Tissue React., 22(1): 15-21).
In long term experiments by using mice intoxicated for three weeks with valproic acid (0.71% weight/volume), the presence (or absence) of cell damage in liver samples of treated animals is determined and compared to the corresponding control groups of animals.

hemoxygenase 1 (HO-1) = assay: Western blot of hemoxygenase 1 expression in liver extracts of intoxicated mice; format: in vivo, mouse; conditions: densitometry
Experimental: To evaluate hemoxygenase 1 (HO-1) protein expression know to be induced by oxidative stress (Suematsu M. and Ishimura Y., 2000, Hepatology, 31(1): 3-6) standard western blot analysis is performed using protein extracts derived from paracetamol- (or carprofen) intoxicated mice treated simultaneously for 1day (or 3 days) with MitoQ (diluted in 1% DMSO in PBS), vitamin E or just vehicle itself (see protocols in Example 3).
(§1) Liver tissues are resuspended in ice-cold RIPA-buffer (50 mM Tris-HCl pH 7.4, 250 mM NaCl, 0.1% SDS, 1% deoxycholate, 1% NP-40) supplemented with 2 μg/ml leupeptin, 2 μg/ml pepstatin, 2 μg/ml aprotinin, 1 mM phenylmethylsulfonylfluoride (PMSF), and 2 mM dithiothreitol followed by homogenization through sonication (2 bursts of 5 seconds) on ice. After incubation for 20 minutes on ice, the lysates are cleared by two centrifugational steps in a microcentrifuge at 13,000 rpm for 15 minutes at 4° C. and the supernatants are collected. Protein concentrations are determined by the Bradford assay (Biorad) using bovine serum albumin as a standard. Equal amounts of protein (typically 10-30 μg) are separated on a 12% SDS-PAGE gel and transferred electrophoretically to a polyvinylidene diflouride (PVDF) membrane (Hybond-P, Amersham) through Semidry-blotting (TE 70, Amersham). […]

[6] = tested on: fatty acid binding protein (FABP); assay: Western blot of fatty acid binding protein in liver extracts of intoxicated mice; format: in vivo, mouse; conditions: drug-intoxicated (paracetamol or carprofen) animals; versus non intoxicated vehicle controls
Experimental: as §1, with “Amersham). The membrane is blocked for 1 hour at room temperature in blocking solution [5% milk in TBS-T (25 mM Tris-HCl pH 7.4, 137 mM NaCl, 3 mM KCl, comprising 0.1% Tween-20)] and incubated with the primary antibody solution (prepared in TBS-T/1% milk) at 4° C. overnight with agitation.” for “Amersham).”
Furthermore, the protein expression level(s) of fatty acid binding protein (FABP) representing a sensitive marker for hepatocyte damage (Monbaliu D. et al., 2005, Transplant Proc. 37(1):413-416) is determined.

[7] = tested on: alanine- and aspartate aminotransferase; assay: Serum liver enzymes (blood parameters) in intoxicated animals; format: in vivo, mouse; conditions: compared to intoxicated control group
[8] = tested on: paracetamol-intoxicated mice livers
Experimental: Mice (8 weeks old) are fed a standard diet. Paracetamol is administered by oral gavage (500 mg/kg of animal). Carprofen is given by intraperitoneal injection (three times every 24 hours) in combination with 0.1% DDC which is included in the diet.
Mice are sacrified at different time-points of intoxication by cervical dislocation and the livers are either immediately snap-frozen in methylbutane precooled with liquid nitrogen for immunofluorescence or fixed in 4% buffered formaldehyde for routine histology and immunohistochemistry.
To evaluate the impact of the antioxidants according to the invention on regression of morphological alterations in early stages of paracetamol-intoxicated mice livers, a group of animals are treated on day one with MitoQ (a mixture of MitoQuinol [10-(3,6-dihydroxy-4,5-dimethoxy-2 methylphenyl)decyl]triphenylphosphonium bromide and MitoQuinone [10-(4,5-dimethoxy-2-methyl-3,6-dioxo-1,4-cyclohexadien-1-yl)decyl]-triphenylphosphonium bromide (provided by Prof. Albin Hermetter, TU Graz, AT), diluted with PBS/1% DMSO in three different concentrations (200 nM, 300 nM and 400 nM) intraperitoneally with maximum administration volume 100 μl (controls receive 100 μl PBS/1% DMSO only). For injections, MitoQ is dissolved in PBS supplemented with sufficient DMSO (preferably 1%) to maintain solubility of antioxidants. Intraperitoneal or i.v. (tail vein) injections are given to pairs of mice and compared with vehicle-injected controls. These correspond to maximum tolerated dose of 20 mg of MitoQ/kg/day (750 nmol) according to Smith R. A. J et al., 2003, PNAS, 100 (9): 5407-5412.
On the second day MitoQ treatment is continued, additionally mice are intoxicated with 500 mg/kg paracetamol diluted with PBS po (maximum administration volume is 300 μl).

[9] = tested on: DDC-intoxicated mouse liver; assay: Hepatocyte damage in mouse liver upon 3 days exposure to DDC (0.1%), MitoQ versus vitamin E (histology); conditions: MitoQ 12 mg/kg peritoneally, vitamin E 100 mg/kg subcutaneously
Experimental: FIGS. 3a and 3b: Comparison of MitoQ (12 mg/kg of animal;given peritoneally) and vitamin E (100 mg/kg of animal, applied subcutneously) effect on the degree of hepatocyte damage in mouse liver upon short term (3 days) exposure to DDC (0.1%)
Controls receive 300 μPBS only. Vitamin E is given subcutaneously in the same intervals as MitoQ at doses of 40 to 100 mg/kg dissolved in corn oil/PBS (1:5).

[10] = concentration used for treatment of intoxicated immortalized hepatocytes, read-out: EC50
[11] = paracetamol 500 mg/kg, 1 day, MitoQ 300 nmol/animal in PBS/1% DMSO, simultaneous, 24 hours pretreatment

| Molecule | accumulation by mitochondria [2] | gross signs of toxicity [3] | safety of long term feeding to mice [3] | reduction of liver damage by serum liver enzymes (alanine- and aspartate aminotransferase) [7] | EC50 [1, 10] | ROS formation [1] | inflammatory cells [9] | liver morphology [9] | protoporphyrin accumulation in the bile ducts [9] | also measured |
| --- | --- | --- | --- | --- | --- | --- | --- | --- | --- | --- |
| CCOC(=O)C1=C(C)NC(C)=C(C(=O)OCC)C1C [DDC] | – | – | – | – | – | – | – | – | – | EC50 ([1]; intoxicant, hepatocytes incubated up to 72 hours in culture medium (DMEM and 10% FCS)): 50 μg/ml of medium |
| Cc1c(C)c2c(c(C)c1O)CCC(C)(CC[P+](c1ccccc1)(c1ccccc1)c1ccccc1)O2 (stereo not drawn) [MitoVit E, [2-(3,4-dihydro-6-hydroxy-2,5,7,8-tetramethyl-2H-1-benzopyran-2-yl)ethyl]-triphenylphosphonium bromide] | rapidly and selectively accumulated | without any gross signs of toxicity | could be fed safely | – | – | – | – | – | – | maximum tolerated dose ([3]; 500 μM in drinking water): 60 mg/kg/day |
| C[P+](c1ccccc1)(c1ccccc1)c1ccccc1 [TPMP, reference compound] | – | – | could be fed safely | – | – | – | – | – | – | – |
| MitoQ | rapidly and selectively accumulated | without any gross signs of toxicity | could be fed safely | significant reduction | 1 µM | significant reduction | absent | restores normal liver morphology | persists | inflammatory cells [4]: absent; liver morphology [4]: restores normal liver morpohology; degree of cell damage [5]: greatly reduced; HO-1 protein expression (hemoxygenase 1 (HO-1); compared to paracetamol intoxicated group of animals): significant reduction; HO-1 protein expression (hemoxygenase 1 (HO-1); compared to vitamin E treated mice): less significant reduction; FABP protein expression [6]: reaches almost control mice FABP protein expression values; also recorded: reach almost control mice FABP expression values; blood congestion in the sinusoids [8, 11]: reduces blood congestion in the sinusoids; necrotic hepatocytes [8, 11]: only few single necrotic cells are seen; liver architecture (strands of hepatocytes bordered by sinusoids) ([8]; short-term experiments overall (paracetamol; carprofen + DDC), compared to vitamin E or untreated animals): is again visible |
| vitamin E [reference compound] | – | – | – | less significant effect | 10 µM | significant reduction | still present in the periportal area | only partially restores normal liver morphology | persists | – |
